The text below walks through data of patent publication US20240197869A1, “HYPERACTIVATORS OF MAMMALIAN DENDRITIC CELLS” (Corner Therapeutics, Inc., priority 2021, published 2024).

Data set [1] deals with human monocyte-derived dendritic cells (moDCs). The data set can be described thus: DAMP screen: IL-1β secretion by LPS-activated human moDCs (ELISA). Type of data set: cell-based. How it is done: Danger-Associated Molecular Pattern (DAMP) Screen.
(§1) Quantification of IL-1beta Secretion. IL-1beta secretion was assessed using the ELISA MAX Deluxe Set Human IL-1beta kit (Biolegend). ELISAs were performed according to manufacturer's instructions with the following modifications: i) total sample volume for incubation was reduced from […] the top standard was prepared at […], with two-fold dilutions to […]; and iii) sample incubation was completed overnight at 4 C on an orbital shaker. […] To determine IL-1beta concentration in supernatants, sample IL-1beta concentrations were interpolated using a standard curve via 4PL analysis on GraphPad Prism 9 (GraphPad Software). The interpolated results of samples were then adjusted for any dilutions made to the supernatant.
On the technique in general: ELISA stands for enzyme-linked immunosorbent assay.

Data set [2] has the same test system. The data set can be described thus: Lipid titration: IL-1β secretion by LPS-activated human moDCs. It counts as cell-based. As to conditions: for Activity Units (AU) ± SD (lipid activity index): reciprocal of lowest concentration giving IL-1β two-fold over LPS x highest IL-1β signal. The procedure:
as §1

Data set [3] shares this test system. Nature of the data set: DAMP screen: viability of human moDCs (CellTiter-Glo). (In ATP-based viability assays light output follows the ATP content of the culture.)
Method: Danger-Associated Molecular Pattern (DAMP) Screen. After 6 days of differentiation into moDC, cells were collected and counted. Cells were plated at 100,000 cells/well in R10 media in 96-well flat bottom tissue culture-treated plates. LPS, serotype O55:B5 (Enzo Life Sciences) was added to a final concentration of 1 μg/mL in each well. […] Cells were incubated at 37° C., 5% CO2 for two days. Cell cultures were then used for endpoint analyses.
Endpoint Analyses. After culturing moDCs with PAMPs and DAMPs for two days, supernatant and cell samples were collected for analysis.
(§2) Quantification of Cell Viability. Cell viability was assessed by quantifying the presence of ATP as an indicator of metabolically active cells using the CellTiter-Glo Luminescent Cell Viability Assay (Promega). Metabolic activity was assessed following manufacturer's instructions. The CellTiter-Glo reagent was mixed with the cell pellets and remaining supernatant, and transferred to a white, opaque 96-well plate. Luminescence was measured on all wavelengths on a Spectramax iD3 plate reader (Molecular Devices) using an integration time of 500 ms. Percent viability was calculated relative to the control condition of moDCs treated with LPS.
For data set [4] the test system is unchanged. Nature of the data set: Lipid titration: viability of human moDCs (CellTiter-Glo). As to conditions: 10.3 μM lipid + LPS 1 μg/mL, 2 days; relative to LPS-treated moDCs; Table 1-5.
Method: Lipid Titration. After 6 days of differentiation into moDC, cells were collected and counted. Cells were replated at 100,000 cells/well in R10 media in 96-well flat bottom tissue culture-treated plates. LPS, serotype 055:B5 (Enzo Life Sciences) was added to a final concentration of 1 μg/mL in each well. After the addition of LPS, lipids were prepared. […] After two days of culture, cell cultures were used for endpoint analyses.
Endpoint Analyses. After culturing moDCs with PAMPs and DAMPs for two days, supernatant and cell samples were collected for analysis. Cells in culture were pelleted by centrifugation at 400×g for 5 min.
as §2
Statistical Analyses. […] For each tested condition, cells from each donor were plated to be tested in triplicate.
The test system is the same in data set [5]. Nature of the data set: PAMP screen: IL-1β secretion by human moDCs with PRR agonist and 22:0 Lyso PC. To be noted: high dose PAMP + 22:0 Lyso PC 20 μM, 2 days. It counts as cell-based. How it is done:
Pathogen-Associated Molecular Pattern (PAMP) Screen. Innate immune signaling pathway agonists were purchased from Invivogen. Lyophilized stocks were reconstituted and stored according to manufacturer's instructions and at recommended concentrations. […] Innate immune signaling agonists were diluted in R10 media to the manufacturer's recommended working concentration and then added onto cells. 22:0 Lyso PC was then reconstituted from a lyophilized stock in R10 and then further diluted. The lipid was added onto cells at a final concentration of 20 μM. Cells were incubated for 2 days, then cultures were collected for endpoint analyses.
as §1

The mark [6] stands for this setting: 41.3 μM lipid + LPS 1 μg/mL, 2 days, Table 1-2.
The mark [7] stands for this setting: 82.5 μM lipid + LPS, selected lipids, Table 1-3 (repeats Table 1-1).
Where [8] appears, read: 10.3 μM lipid + LPS 1 μg/mL, 2 days, Table 1-5.
The mark [9] stands for this setting: 20.6 μM lipid + LPS, human moDCs, 4 donors, mean (SD in wrapped line below).
Setting [10] is: 41.3 μM lipid + LPS 1 μg/mL, 2 days, relative to LPS-treated moDCs, Table 1-2.
[11] abbreviates: 82.5 μM lipid + LPS 1 μg/mL, 2 days, relative to LPS-treated moDCs, Table 1-1.

“Also recorded” adds a separate entry of the source.

As for `CCCCCCCCCCCC(=O)OC[C@@H](O)COP(=O)([O-])OCC[N+](C)(C)C` [12:0 LYSO PC], the IL-1β secretion in data set [1] (setting [6]) was 54.5 pg/mL; in data set [1] (setting [7]), 115.3 pg/mL; in data set [2] (setting [8]), 43.1 pg/mL; in data set [2] (setting [9]), 44.2 pg/mL. The “Relative Viability (%) ± SD” value in data set [3] (setting [10]) is 96.6%; in data set [3] (setting [11]), 91.1%; in data set [3] (setting [7]), 91.1%; in data set [4], 97.3%.
Consider `CCCCCCCCCCCCCCCC(=O)OC[C@H](COP(=O)([O-])OCC[N+](C)(C)C)OC(=O)CCCCCCCCCCCCC` [16:0-14:0 PC], for which the IL-1β secretion in data set [1] (setting [6]) was 42.2 pg/mL. The “Relative Viability (%) ± SD” value in data set [3] (setting [10]) is 101.0%; in data set [3] (setting [11]), 87.4%.
For `CCCCCCCCCCCCCCCCCC(=O)O[C@H](COC(=O)CCCCCCCCCCCCCCC)COP(=O)([O-])OCC[N+](C)(C)C` [16:0-18:0 PC], the IL-1β secretion in data set [1] (setting [6]) worked out at 26.3 pg/mL. The “Relative Viability (%) ± SD” value in data set [3] (setting [10]) came out at 97.7%; in data set [3] (setting [11]), 88.8%.
The matching figures for `CCCCCCCC/C=C\CCCCCCCC(=O)O[C@H](COC(=O)CCCCCCCCCCCCCCC)COP(=O)([O-])OCC[N+](C)(C)C` [16:0-18:1 PC (POPC)]: 28.2 pg/mL, 96.5% and 92.9%.
In the case of `CCCCCCCCCCCCCCCC(=O)OC[C@H](COP(=O)([O-])OCC[N+](C)(C)C)OC(=O)CCCCCCCCCCC(CCCCCC)OC(=O)CCCCCCCCCCCCCCC` (stereo partly drawn) [16:0-(12-PAHSA) PC], the IL-1β secretion in data set [1] (setting [6]) was 37.0 pg/mL. In addition, the “Relative Viability (%) ± SD” value in data set [3] (setting [10]) is 98.3%; in data set [3] (setting [11]), 96.9%.
Turning to `CCCCCC/C=C\CCCCCCCCC(=O)OC[C@@H](O)COP(=O)([O-])OCC[N+](C)(C)C` [17:1 Δ^10 LYSO PC, 1-(10Z-heptadecenoyl)-2-hydroxy-sn-glycero-3-phosphocholine], the IL-1β secretion in data set [1] (setting [6]) is on record as 42.7 pg/mL. The results for the “Relative Viability (%) ± SD” value in data set [3] (setting [10]) and in data set [3] (setting [11]) were 97.2% and 95.3%, respectively.
The matching figures for `CCCCCCCCCCCCCCCCCC(=O)OC[C@H](COP(=O)([O-])OCC[N+](C)(C)C)OC(=O)CCCCCCCCCCCCC` [18:0-14:0 PC]: 31.2 pg/mL, 98.1% and 86.1%.
The corresponding values for `CCCCCCCCCCCCCCCCCC(=O)OC[C@H](COP(=O)([O-])OCC[N+](C)(C)C)OC(=O)CCCCCCCCCCCCCCC` [18:0-16:0 PC] are 20.1 pg/mL, 100.3% and 85.3%.
The matching figures for `CCCCCCCC/C=C\CCCCCCCC(=O)OC[C@@H](O)COP(=O)([O-])OCC[N+](C)(C)C` [18:1 Δ^9 LYSO PC]: 34.8 pg/mL, 97.8% and 91.5%.
With `CCCCCCCCCCCCCCCCCCC(=O)OC[C@@H](O)COP(=O)([O-])OCC[N+](C)(C)C` [19:0 LYSO PC, 1-nonadecanoyl-2-hydroxy-sn-glycero-3-phosphocholine], the IL-1β secretion is 468.9 pg/mL in data set [1] (setting [6]), 209.3 pg/mL in data set [1] (setting [7]), 43.0 pg/mL in data set [2] (setting [8]) and 55.6 pg/mL in data set [2] (setting [9]). The “lipid activity index, ranking in words” value in data set [2] (lipid 1.3-82.5 μM + LPS) is reported as “followed by 19:0 Lyso PC”. In data set [2] (lipid 1.3-82.5 μM + LPS), the “Activity Units (AU) ± SD (lipid activity index)” value is 6.34 ± 3.39 AU. Moreover, the “Relative Viability (%) ± SD” value in data set [3] (setting [10]) is 39.4%; in data set [3] (setting [11]) it was 2.7%; in data set [3] (setting [7]), 2.7%; in data set [4], 96.4%.
For `CCCCCCCCCCCCCCCCCCCC(=O)OC[C@@H](O)COP(=O)([O-])OCC[N+](C)(C)C` [20:0 LYSO PC, 1-arachidoyl-2-hydroxy-sn-glycero-3-phosphocholine], in data set [1] (setting [6]), the IL-1β secretion turned out to be 168.7 pg/mL. Besides, the “Relative Viability (%) ± SD” value in data set [3] (setting [10]) amounted to 75.2%; in data set [3] (setting [11]), 6.0%.
In the case of `CCCCCCCCCCCCCCCCCCCCCCCC(=O)OC[C@@H](O)COP(=O)([O-])OCC[N+](C)(C)C` [24:0 LYSO PC, 1-lignoceroyl-2-hydroxy-sn-glycero-3-phosphocholine], the IL-1β secretion in data set [1] (setting [6]) came out at 38.8 pg/mL; in data set [1] (setting [7]), 39.7 pg/mL; in data set [2] (setting [8]), 36.5 pg/mL; in data set [2] (setting [9]) it was 36.6 pg/mL. Also, the “Relative Viability (%) ± SD” value is 94.6% in data set [3] (setting [10]), 96.0% in data set [3] (setting [11]), 96.0% in data set [3] (setting [7]) and 96.8% in data set [4].
Turning to `CCCCCCCCCCCCCCCCCCCCCCCCCC(=O)OC[C@@H](O)COP(=O)([O-])OCC[N+](C)(C)C` [26:0 LYSO PC], in data set [1] (setting [6]), the IL-1β secretion stood at 43.1 pg/mL. For the same molecule, the “Relative Viability (%) ± SD” value is listed as 93.3% in data set [3] (setting [10]) and 94.7% in data set [3] (setting [11]).
On to `CCCCCCCCCCCCCCCC(=O)OC[C@H](COP(=O)([O-])OCC[N+](C)(C)C)OC(=O)CCCCCCCC(=O)O` [PAzePC, 1-palmitoyl-2-azelaoyl-sn-glycero-3-phosphocholine, reference compound], for which the IL-1β secretion in data set [1] (setting [6]) is on record as 191.7 pg/mL; in data set [1] (setting [7]), 153.4 pg/mL; in data set [2] (setting [8]) it was 47.9 pg/mL; in data set [2] (setting [9]), 59.0 pg/mL. For the same molecule, the “Activity Units (AU) ± SD (lipid activity index)” value in data set [2] (lipid 1.3-82.5 μM + LPS) stood at 1.81 ± 1.95 AU. The “Relative Viability (%) ± SD” value in data set [3] (setting [10]) is 95.6%; in data set [3] (setting [11]), 78.8%; in data set [3] (setting [7]), 78.8%; in data set [4] it was 98.0%.
As for `CCCCCCCCCCCCCCCC(=O)OC[C@H](COP(=O)([O-])OCC[N+](C)(C)C)OC(=O)CCCC=O` [POVPC, 1-palmitoyl-2-(5′-oxo-valeroyl)-sn-glycero-3-phosphocholine, reference compound], the IL-1β secretion is 121.5 pg/mL in data set [1] (setting [6]), 168.5 pg/mL in data set [1] (setting [7]), 49.1 pg/mL in data set [2] (setting [8]) and 60.6 pg/mL in data set [2] (setting [9]). Moreover, the “Activity Units (AU) ± SD (lipid activity index)” value in data set [2] (lipid 1.3-82.5 μM + LPS) came to 0.00 ± 0.00 AU. Moreover, the “Relative Viability (%) ± SD” value in data set [3] (setting [10]) turned out to be 92.1%; in data set [3] (setting [11]) it was 79.5%; in data set [3] (setting [7]), 79.5%; in data set [4], 97.3%.
In the case of `CCOC(=O)C1=Cc2ccc(-c3cccc(C#N)c3)cc2N=C(N)C1` [TL8-506], the “IL-1β secretion (in words)” value in data set [5] is recorded as “enabled IL-1β secretion; also recorded: induced IL-1β secretion”.
